This passage reports fold change (FC), Activity and EC50 results from ChEMBL document CHEMBL3120076, “Structure-activity relationship of Baifuzi-cerebrosides on BKCa channel activation” (Eur J Med Chem, 2014).

The structures appear in SMILES notation. The source made the active and inactive calls. No cut-off for these calls is given here.

What all share (assay type): cell-based
The test system of experiment [1] is CHO-K1. The experiment is described as follows: Activation of wild type BK calcium channel (unknown origin) expressed in CHO-K1 cells assessed as increase in channel open probability by whole cell patch-clamp technique relative to control. Particulars: Homo sapiens. A general note: Patch clamp records ionic current or voltage across a cell membrane.
Experiment [2] relates to CHO-K1. Put plainly: Activation of wild type BK calcium channel (unknown origin) expressed in CHO-K1 cells assessed as increase in channel open probability at 10 uM at +20 mV holding potential by whole cell patch-clamp technique (reference value: 0.58 +/- 0.03%). The following applies: Homo sapiens.
Experiment [3] relates to CHO-K1. The experiment is described as follows: Activation of wild type BK calcium channel (unknown origin) expressed in CHO-K1 cells assessed as increase in channel open probability at 5 uM at +20 mV holding potential by whole cell patch-clamp technique (reference value: 0.58 +/- 0.03%). Particulars: Homo sapiens.
Experiment [4] concerns CHO-K1. The experiment is described as follows: (§1) Activation of wild type BK calcium channel (unknown origin) expressed in CHO-K1 cells assessed as increase in channel open probability at +20 mV holding potential by whole cell patch-clamp technique. Particulars: Homo sapiens.
A short description of experiment [5]: as §1.
Experiment [6] relates to CHO-K1. The experiment is described as follows: Activation of wild type BK calcium channel STREX domain-deleted mutant (unknown origin) expressed in CHO-K1 cells assessed as increase in channel open probability at 10 uM at +20 mV holding potential by whole cell patch-clamp technique (reference value: 0.7 +/- 0.1%). The following applies: Homo sapiens.
Experiment [7] concerns CHO-K1. The experiment is described as follows: Extracellular activation of wild type BK calcium channel (unknown origin) expressed in CHO-K1 cells assessed as increase in whole cell currents at 10 uM by whole cell patch-clamp technique. Particulars: Homo sapiens.
The subject of experiment [8] is CHO-K1. Put plainly: Activation of wild type BK calcium channel (unknown origin) expressed in CHO-K1 cells assessed as increase in channel open probability at 1 uM at +20 mV holding potential by whole cell patch-clamp technique (reference value: 0.58 +/- 0.03%). The following applies: Homo sapiens.
Experiment [9] deals with CHO-K1. Put plainly: Activation of wild type BK calcium channel (unknown origin) expressed in CHO-K1 cells assessed as increase in channel open probability at 0.1 uM at +20 mV holding potential by whole cell patch-clamp technique (reference value: 0.58 +/- 0.03%). Particulars: Homo sapiens.

For the compound `CCCCCCCCC/C=C\CC/C=C/[C@@H](O)[C@H](CO[C@@H]1O[C@H](CO)[C@@H](O)[C@H](O)[C@H]1O)NC(=O)[C@H](O)CCCCCCCCCCCCCCCC`, in experiment [1], the fold change (FC) stood at 1.15.

On to `CCCCCCCCC/C=C/CC/C=C/[C@@H](O)[C@H](CO[C@@H]1O[C@H](CO)[C@@H](O)[C@H](O)[C@H]1O)NC(=O)[C@H](O)CCCCCCCCCCCCCCCC`, for which the fold change (FC) in [1] came to 2.03.

As for `CCCCCCCCC/C=C/CC/C=C/[C@@H](O)[C@H](CO[C@@H]1O[C@H](CO)[C@@H](O)[C@H](O)[C@H]1O)NC(=O)[C@H](O)CCCCCCCCCCCCCCCCCC`, the fold change (FC) in [1] stood at 3.12.

Consider `CCCCCCCCC/C=C\CC/C=C/[C@@H](O)[C@H](CO[C@@H]1O[C@H](CO)[C@@H](O)[C@H](O)[C@H]1O)NC(=O)[C@H](O)CCCCCCCCCCCCCCCCCCCC`, for which the Activity in experiment [2] is 4.2%; in [3], 3.3%; in experiment [4], “Dose-dependent effect”; in experiment [6], 0.9%; in experiment [8] it was 2.4%; in experiment [9], 0.65%. Also, in experiment [5], the EC50 (in general, the concentration at which the effect is half-maximal) is 1 µM. The result in experiment [7] was Active. In [1], the fold change (FC) was 5.34.

With `CCCCCCCCC/C=C\CC/C=C/[C@@H](O)[C@H](CO[C@@H]1O[C@H](CO)[C@@H](O)[C@H](O)[C@H]1O)NC(=O)[C@H](O)CCCCCCCCCCCCCCCCCC`, the fold change (FC) in [1] turned out to be 1.89.
